{"source": "ChEMBL document CHEMBL3045542", "about": "“A quantitative structure-activity relationship study of herbicidal analogues of alpha-hydroxy-substituted 3-benzylidenepyrrolidene-2,4-diones” (2006)", "type_in_all_cases": "functional", "key": {"[1]": {"tested_on": "Digitaria sanguinalis", "test": "Herbicidal activity against Digitaria sanguinalis (hairy crabgrass) assessed as inhibition of plant growth at 187.5 g/ha applied as pre-emergence treatment", "conditions": "Digitaria sanguinalis, pre-emergence"}, "[2]": {"tested_on": "Digitaria sanguinalis", "test": "Herbicidal activity against Digitaria sanguinalis (hairy crabgrass) assessed as inhibition of plant growth at 93.75 g/ha applied as pre-emergence treatment", "conditions": "Digitaria sanguinalis, pre-emergence"}, "[3]": {"tested_on": "Digitaria sanguinalis", "test": "Herbicidal activity against Digitaria sanguinalis (hairy crabgrass) assessed as inhibition of plant growth at 750 g/ha applied as pre-emergence treatment", "conditions": "Digitaria sanguinalis, pre-emergence"}, "[4]": {"tested_on": "Echinochloa crus-galli", "test": "Herbicidal activity against Echinochloa crus-galli (barnyard grass) assessed as inhibition of plant growth at 187.5 g/ha applied as pre-emergence treatment", "conditions": "Echinochloa crus-galli, pre-emergence"}, "[5]": {"tested_on": "Echinochloa crus-galli", "test": "Herbicidal activity against Echinochloa crus-galli (barnyard grass) assessed as inhibition of plant growth at 750 g/ha applied as pre-emergence treatment", "conditions": "Echinochloa crus-galli, pre-emergence"}, "[6]": {"tested_on": "Echinochloa crus-galli", "test": "Herbicidal activity against Echinochloa crus-galli (barnyard grass) assessed as inhibition of plant growth at 375 g/ha applied as pre-emergence treatment", "conditions": "Echinochloa crus-galli, pre-emergence"}, "[7]": {"tested_on": "Echinochloa crus-galli", "test": "Herbicidal activity against Echinochloa crus-galli (barnyard grass) assessed as inhibition of plant growth at 93.75 g/ha applied as pre-emergence treatment", "conditions": "Echinochloa crus-galli, pre-emergence"}, "[8]": {"tested_on": "Digitaria sanguinalis", "test": "Herbicidal activity against Digitaria sanguinalis (hairy crabgrass) assessed as inhibition of plant growth at 375 g/ha applied as pre-emergence treatment", "conditions": "Digitaria sanguinalis, pre-emergence"}, "[9]": {"tested_on": "Echinochloa crus-galli", "test": "Herbicidal activity against Echinochloa crus-galli (barnyard grass) assessed as inhibition of plant growth at 10 ug/mL by cup test"}}, "data": [{"smiles": "C=CCOc1ccc(/C(O)=C2\\C(=O)CN(C(C)C)C2=O)cc1", "values": [{"measurement": "inhibition at 187.5 g/ha", "setting": "[1]", "result": 36, "unit": "%"}, {"measurement": "inhibition at 93.75 g/ha", "setting": "[2]", "result": 0, "unit": "%"}, {"measurement": "inhibition at 750 g/ha", "setting": "[3]", "result": 79, "unit": "%"}, {"measurement": "inhibition at 187.5 g/ha", "setting": "[4]", "result": 55, "unit": "%"}, {"measurement": "inhibition at 750 g/ha", "setting": "[5]", "result": 100, "unit": "%"}, {"measurement": "inhibition at 375 g/ha", "setting": "[6]", "result": 95, "unit": "%"}, {"measurement": "inhibition at 93.75 g/ha", "setting": "[7]", "result": 30, "unit": "%"}, {"measurement": "inhibition at 375 g/ha", "setting": "[8]", "result": 74, "unit": "%"}, {"measurement": "inhibition at 10 µg/mL", "setting": "[9]", "result": 78, "unit": "%"}]}]}
